Results published in publication PMC8541628, “Development of Novel Quinoline-Based Sulfonamides as Selective Cancer-Associated Carbonic Anhydrase Isoform IX Inhibitors” (International Journal of Molecular Sciences, 2021).
Read-outs that look alike come from different tables or passages of the source.

Experiments:
active caspase-3 [1] = assay: active caspase-3 level (ELISA) in MCF-7 cells; format: cell-based, human; conditions: 24 h incubation
Experimental: (§1) The levels of two members of Bcl-2 family proteins, the anti-apoptotic Bcl-2 protein, and the counteracting pro-apoptotic Bax protein, as well as the level of active caspase-3 (a key executioner protease) in MDA-MB-231 and MCF-7 cells have been assessed after incubation with QBS 11c and 13b for 24 h.
(§2) All adopted procedures for the conducted in vitro biological assays were performed as described earlier; CA (stopped-flow), cytotoxicity (MTT [37, 38]), and assessment of apoptotic markers assays, as well as induction of hypoxia with cobalt chloride, and were mentioned in the Supporting Materials. […]
(§3) monolay er. Cell monolay ers were treated in quadrates with vehicle (DMSO, 0.1% v/v), test samples or Adriamycin as positive control for an exposure time of 72 h. At the end of exposure, MTT solution in PBS (5 mg/ml) was then added to all well including no cell blank and left to incubate for 90 min. The formation of formazan crystals were visually confirmed using phase contract microscopy. DMSO (100 µl/well) was added to dissolve the formazan crystals with shaking for 10 min after which the absorbance was read at 590 nm against no cell blanks on a FLuo Star Optima microplate reader (BMG technologies, Germany). Cell proliferation was calculated comparing the OD values of the DMSO control wells and those of the samples represented as % proliferation to the control. Dose-response experiment was performed on samples producing > or =50% loss of cell proliferation using five serial 2-fold dilutions (50, 25, 12.5, 6.25 and 3.125 µM) of the sample. IC50 values (concentration of sample causing 50% loss of cell proliferation of the vehicle control) were calculated using non-linear regression curve fitting of the dose response plots on GraphPad Prism V.6.0 software.
(§4) 3. Assessment of Apo ptotic Markers Levels
The levels of the pro-apoptotic markers (Bax and active caspase-3) as well as the anti-apoptotic marker Bcl-2 were determined using ELISA kits; Human Bax ELISA Kit (EIA-4487) DRG® Instruments, Bcl-2 ELISA Kit (99–0042), Zymed® Laboratories, Invitrogen Immunodetection, and Human Caspase-3 (active) ELISA Kit (KHO1091) Invitrogen®, per the manufacturer’s instructions. Breast cancer MDA-MB-231 and MCF-7 cells were cultured as a monolayer in T-25 flasks and were seeded to attain 30% confluency prior to treatment. Cells were then treated separately with MBFS 11b at its IC50 concentration for 24 h. […]
captured protein, forming a “sandwich” of specific antibodies around the desired protein in the cell lysate. […] The HRP domain reacted with the added TMB substrate to form a colored product that measured at 450 nm by a plate reader ChroMate-4300 after the reaction was terminated via the addition of stop solution. […]

Bcl-2 = Bcl-2 expression level (ELISA) in MCF-7 cells; format: cell-based, human; conditions: for Bcl-2 / Bcl-2, folds of control: 24 h incubation; for suppression of the expression level of Bcl-2 protein: compared to the untreated control
Experimental: as §1, §2, §3, §4
(§5) The levels of the pro-apoptotic markers (Bax and active caspase-3) as well as the anti-apoptotic marker Bcl-2 were determined using ELISA kits; Human Bax ELISA Kit (EIA-4487) DRG® Instruments, Bcl-2 ELISA Kit (99–0042), Zymed® Laboratories, Invitrogen Immunodetection, and Human Caspase-3 (active) ELISA Kit (KHO1091) Invitrogen®, per the manufacturer’s instructions. Breast cancer MDA-MB-231 and MCF-7 cells were cultured as a monolayer in T-25 flasks and were seeded to attain 30% confluency prior to treatment. Cells were then treated separately with MBFS 11b at its IC50 concentration for 24 h. At the end of treatment, cells were collected via trypsinization and centrifuged at 10,000 rpm. The pellet was then rinsed with PBS and lysed in RIPA lysis buffer at 4 °C for 45 min, then centrifuged at 14,000 rpm for 20 min to remove the cellular debris. Lysates were then collected and stored at −80 °C for later protein determination using Pierce BCA Protein Assay Kit according to manufacturer’s recommendations.
(§6) The cell lysate was diluted 10 times, and 100 μL ([…]) was added to the wells of […] separate microtiter plates for the three ELISA kits th at were pre-coated with primary antibodies specific to Bax, Bcl-2, and caspase-3 proteins, respectively. A secondary biotin-linked antibody specific to the protein captured by the primary antibody was further added to bind the […]
(§7) captured protein, forming a “sandwich” of specific antibodies around the desired protein in the cell lysate. The streptavidin-HRP complex was then used to bind the biotin-linked secondary antibody through its streptavidin portion. The HRP domain reacted with the added TMB substrate to form a colored product that measured at 450 nm by a plate reader ChroMate-4300 after the reaction was terminated via the addition of stop solution. […]
(§8) The ligand 3D structures were prepared by Maestro and their ionization states was checked with Epik at pH 7.4±0.5 then they were subjected to energy minimization using OPLS3 force field in Macromodel with a maximum number of 2500 conjugate gradient iteration and a convergence of 0.05 kcal mol−1 A−1. Glide with default […]

hCA IX = hCA IX (Homo sapiens, UniProt Q16790); assay: stopped flow carbon dioxide hydrase assay, hCA IX; conditions: for Selectivity ratio I/IX: hCA IX over hCA I; for Selectivity ratio II/IX: hCA IX over hCA II
hCA II = hCA II (Homo sapiens, UniProt P00918); assay: stopped flow carbon dioxide hydrase assay, hCA II
hCA XII = hCA XII (Homo sapiens, UniProt O43570); assay: stopped flow carbon dioxide hydrase assay, hCA XII; conditions: for Selectivity ratio I/XII: hCA XII over hCA I; for Selectivity ratio II/XII: hCA XII over hCA II
active caspase-3 [2] = assay: active caspase-3 level (ELISA) in MDA-MB-231 cells; format: cell-based, human; conditions: 24 h incubation
Experimental: as §1, §2, §4, §5, §6, §7
as §8, with “A−1.” for “A−1. Glide with default”

Sequence of hCA XII (O43570 25-354): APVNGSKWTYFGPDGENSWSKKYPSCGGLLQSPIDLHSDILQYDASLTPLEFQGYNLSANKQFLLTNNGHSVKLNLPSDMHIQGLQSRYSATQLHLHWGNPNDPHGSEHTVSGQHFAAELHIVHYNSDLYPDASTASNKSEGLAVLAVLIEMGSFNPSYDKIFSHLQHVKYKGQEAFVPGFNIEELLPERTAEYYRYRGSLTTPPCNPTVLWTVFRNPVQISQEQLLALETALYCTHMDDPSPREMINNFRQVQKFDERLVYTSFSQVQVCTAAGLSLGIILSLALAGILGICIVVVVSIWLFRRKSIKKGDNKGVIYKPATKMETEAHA

Selectivity ratio I/IX (hCA IX)	Selectivity ratio II/IX (hCA IX)	Ki (hCA IX; read-out: KI CA IX, stopped flow technique, mean from 3 different assays) [nM]	Ki (hCA II) [nM]	Ki (hCA XII) [nM]	Selectivity ratio I/XII (hCA XII)	Selectivity ratio II/XII (hCA XII)	melting point [°C]	Ki (hCA IX) [nM]	SMILES	Active Caspase-3 (active caspase-3 [1])	Active Caspase-3, folds of control (active caspase-3 [1])	Bcl-2 (Bcl-2)	Bcl-2, folds of control (Bcl-2)	suppression of the expression level of Bcl-2 protein (Bcl-2) [%]	Active Caspase-3 (active caspase-3 [2])	Active Caspase-3, folds of control (active caspase-3 [2])
52.7	18.4	8.4	155	55.3	8.0	2.8			NS(=O)(=O)c1cccc(Nc2ccnc3ccc(Cl)cc23)c1 [11c, 3-((6-chloroquinolin-4-yl)amino)benzenesulfonamide]	17.83 ± 0.62 Pg/mg of Total Protein	3.64 folds of control	7.29 ± 0.15 Pg/mg of Total Protein	0.79 folds of control	21	12.69 ± 1.14 Pg/mg of Total Protein	4.93 folds of control
16.7	10.6		58.4	13.2	7.0	4.4	250 to 252	5.5	COc1ccc2nccc(Nc3ccc(S(N)(=O)=O)cc3)c2c1 [13b, 4-((6-methoxyquinolin-4-yl)amino)benzenesulfonamide]	14.82 ± 0.43 Pg/mg of Total Protein	3.02 folds of control	5.72 ± 0.13 Pg/mg of Total Protein	0.62 folds of control	38	9.32 ± 0.73 Pg/mg of Total Protein	3.62 folds of control
